{"source": "paper PMC6979384", "about": "“Characterization of the plant homeodomain (PHD) reader family for their histone tail interactions” (Epigenetics & Chromatin, 2020)", "experiment_in_all_cases": "Histone peptide microarray", "type_in_all_cases": "binding, human", "key": {"[1]": {"tested_on": "AIRE (PP)", "conditions": "sheet \"Array Heatmap\"; GST-tagged AIRE (PP); arrays performed twice, total replicate number n = 4", "procedure,_shortened": "(§1)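 Recombinant GST-PHD protein at 0.5 μM; 293-member modified histone peptide array; signals averaged from four repeats ± SD.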"}, "[2]": {"tested_on": "BAZ2B", "conditions": "sheet \"Array Heatmap\"; GST-tagged BAZ2B; arrays performed twice, total replicate number n = 4", "procedure,_shortened": "as §1"}, "[3]": {"tested_on": "BPTF (PB)", "conditions": "sheet \"Array Heatmap\"; GST-tagged BPTF (PB); arrays performed twice, total replicate number n = 4", "procedure,_shortened": "as §1"}, "[4]": {"tested_on": "CHD4 (PPCC)", "conditions": "sheet \"Array Heatmap\"; GST-tagged CHD4 (PPCC); arrays performed twice, total replicate number n = 4", "procedure,_shortened": "as §1"}, "[5]": {"tested_on": "CHD5 (PCC)", "conditions": "sheet \"Array Heatmap\"; GST-tagged CHD5 (PCC); arrays performed twice, total replicate number n = 4", "procedure,_shortened": "as §1"}, "[6]": {"tested_on": "CHD5 (PPCC)", "conditions": "sheet \"Array Heatmap\"; GST-tagged CHD5 (PPCC); arrays performed twice, total replicate number n = 4", "procedure,_shortened": "as §1"}, "[7]": {"tested_on": "DIDO1", "conditions": "sheet \"Array Heatmap\"; GST-tagged DIDO1; arrays performed twice, total replicate number n = 4", "procedure,_shortened": "as §1"}, "[8]": {"tested_on": "DPF2 (PPC2W2)", "conditions": "sheet \"Array Heatmap\"; GST-tagged DPF2 (PPC2W2); arrays performed twice, total replicate number n = 4", "procedure,_shortened": "as §1"}, "[9]": {"tested_on": "ING1", "conditions": "sheet \"Array Heatmap\"; GST-tagged ING1; arrays performed twice, total replicate number n = 4", "procedure,_shortened": "as §1"}, "[10]": {"tested_on": "ING2", "conditions": "sheet \"Array Heatmap\"; GST-tagged ING2; arrays performed twice, total replicate number n = 4", "procedure,_shortened": "as §1"}, "[11]": {"tested_on": "ING3", "conditions": "sheet \"Array Heatmap\"; GST-tagged ING3; arrays performed twice, total replicate number n = 4", "procedure,_shortened": "as §1"}, "[12]": {"tested_on": "ING4", "conditions": "sheet \"Array Heatmap\"; GST-tagged ING4; arrays performed twice, total replicate number n = 4", "procedure,_shortened": "as §1"}, "[13]": {"tested_on": "ING5", "conditions": "sheet \"Array Heatmap\"; GST-tagged ING5; arrays performed twice, total replicate number n = 4", "procedure,_shortened": "as §1"}, "[14]": {"tested_on": "KDM4C (TTP)", "conditions": "sheet \"Array Heatmap\"; GST-tagged KDM4C (TTP); arrays performed twice, total replicate number n = 4", "procedure,_shortened": "as §1"}, "[15]": {"tested_on": "KDM5A (1)", "conditions": "sheet \"Array Heatmap\"; GST-tagged KDM5A (1); arrays performed twice, total replicate number n = 4", "procedure,_shortened": "as §1"}, "[16]": {"tested_on": "KDM5A (3)", "conditions": "sheet \"Array Heatmap\"; GST-tagged KDM5A (3); arrays performed twice, total replicate number n = 4", "procedure,_shortened": "as §1"}, "[17]": {"tested_on": "KDM5B (1)", "conditions": "sheet \"Array Heatmap\"; GST-tagged KDM5B (1); arrays performed twice, total replicate number n = 4", "procedure,_shortened": "as §1"}, "[18]": {"tested_on": "KDM5B (3)", "conditions": "sheet \"Array Heatmap\"; GST-tagged KDM5B (3); arrays performed twice, total replicate number n = 4", "procedure,_shortened": "as §1"}, "[19]": {"tested_on": "KDM7A", "conditions": "sheet \"Array Heatmap\"; GST-tagged KDM7A; arrays performed twice, total replicate number n = 4", "procedure,_shortened": "as §1"}, "[20]": {"tested_on": "MLL5", "conditions": "sheet \"Array Heatmap\"; GST-tagged MLL5; arrays performed twice, total replicate number n = 4", "procedure,_shortened": "as §1"}, "[21]": {"tested_on": "MORC3 (CW)", "conditions": "sheet \"Array Heatmap\"; GST-tagged MORC3 (CW); arrays performed twice, total replicate number n = 4", "procedure,_shortened": "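GST-PHD reader, 0.5 μM, probed on 293-peptide histone array (single/combinatorial PTMs); optimized array protocol; signal = mean ± SD, n = 4.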"}, "[22]": {"tested_on": "PHF13", "conditions": "sheet \"Array Heatmap\"; GST-tagged PHF13; arrays performed twice, total replicate number n = 4", "procedure,_shortened": "as §1"}, "[23]": {"tested_on": "PHF21A", "conditions": "sheet \"Array Heatmap\"; GST-tagged PHF21A; arrays performed twice, total replicate number n = 4", "procedure,_shortened": "as §1"}, "[24]": {"tested_on": "PHF23", "conditions": "sheet \"Array Heatmap\"; GST-tagged PHF23; arrays performed twice, total replicate number n = 4", "procedure,_shortened": "as §1"}, "[25]": {"tested_on": "PHF2", "conditions": "sheet \"Array Heatmap\"; GST-tagged PHF2; arrays performed twice, total replicate number n = 4", "procedure,_shortened": "as §1"}, "[26]": {"tested_on": "PHF8", "conditions": "sheet \"Array Heatmap\"; GST-tagged PHF8; arrays performed twice, total replicate number n = 4", "procedure,_shortened": "as §1"}, "[27]": {"tested_on": "PHRF1 (RP)", "conditions": "sheet \"Array Heatmap\"; GST-tagged PHRF1 (RP); arrays performed twice, total replicate number n = 4", "procedure,_shortened": "as §1"}, "[28]": {"tested_on": "RAG2", "conditions": "sheet \"Array Heatmap\"; GST-tagged RAG2; arrays performed twice, total replicate number n = 4", "procedure,_shortened": "as §1"}, "[29]": {"tested_on": "SP140L", "conditions": "sheet \"Array Heatmap\"; GST-tagged SP140L; arrays performed twice, total replicate number n = 4", "procedure,_shortened": "as §1"}, "[30]": {"tested_on": "TAF3", "conditions": "sheet \"Array Heatmap\"; GST-tagged TAF3; arrays performed twice, total replicate number n = 4", "procedure,_shortened": "as §1"}, "[31]": {"tested_on": "TRIM66 (PB)", "conditions": "sheet \"Array Heatmap\"; GST-tagged TRIM66 (PB); arrays performed twice, total replicate number n = 4", "procedure,_shortened": "as §1"}}}
{"substance": "H3R8me2s + K9me2: H3 1-20", "values": [{"measurement": "Array Heatmap signal, AIRE (PP)", "setting": "[1]", "result": 0.5603}, {"measurement": "Array Heatmap signal, BAZ2B", "setting": "[2]", "result": 0.5059}, {"measurement": "Array Heatmap signal, BPTF (PB)", "setting": "[3]", "result": 0.3651}, {"measurement": "Array Heatmap signal, CHD4 (PPCC)", "setting": "[4]", "result": 0.5754}, {"measurement": "Array Heatmap signal, CHD5 (PCC)", "setting": "[5]", "result": 0.7949}, {"measurement": "Array Heatmap signal, CHD5 (PPCC)", "setting": "[6]", "result": 0.5952}, {"measurement": "Array Heatmap signal, DIDO1", "setting": "[7]", "result": 0.6168}, {"measurement": "Array Heatmap signal, DPF2 (PPC2W2)", "setting": "[8]", "result": 0.6724}, {"measurement": "Array Heatmap signal, ING1", "setting": "[9]", "result": 0.5182}, {"measurement": "Array Heatmap signal, ING2", "setting": "[10]", "result": 0.6129}, {"measurement": "Array Heatmap signal, ING3", "setting": "[11]", "result": 0.4823}, {"measurement": "Array Heatmap signal, ING4", "setting": "[12]", "result": 0.4841}, {"measurement": "Array Heatmap signal, ING5", "setting": "[13]", "result": 0.3835}, {"measurement": "Array Heatmap signal, KDM4C (TTP)", "setting": "[14]", "result": 0.5379}, {"measurement": "Array Heatmap signal, KDM5A (1)", "setting": "[15]", "result": 0.5094}, {"measurement": "Array Heatmap signal, KDM5A (3)", "setting": "[16]", "result": 0.4844}, {"measurement": "Array Heatmap signal, KDM5B (1)", "setting": "[17]", "result": 0.6818}, {"measurement": "Array Heatmap signal, KDM5B (3)", "setting": "[18]", "result": 0.5187}, {"measurement": "Array Heatmap signal, KDM7A", "setting": "[19]", "result": 0.4179}, {"measurement": "Array Heatmap signal, MLL5", "setting": "[20]", "result": 0.5188}, {"measurement": "Array Heatmap signal, MORC3 (CW)", "setting": "[21]", "result": 0.398}, {"measurement": "Array Heatmap signal, PHF13", "setting": "[22]", "result": 0.6345}, {"measurement": "Array Heatmap signal, PHF21A", "setting": "[23]", "result": 0.4814}, {"measurement": "Array Heatmap signal, PHF23", "setting": "[24]", "result": 0.5163}, {"measurement": "Array Heatmap signal, PHF2", "setting": "[25]", "result": 0.4235}, {"measurement": "Array Heatmap signal, PHF8", "setting": "[26]", "result": 0.3655}, {"measurement": "Array Heatmap signal, PHRF1 (RP)", "setting": "[27]", "result": 0.5504}, {"measurement": "Array Heatmap signal, RAG2", "setting": "[28]", "result": 0.2593}, {"measurement": "Array Heatmap signal, SP140L", "setting": "[29]", "result": 0.3733}, {"measurement": "Array Heatmap signal, TAF3", "setting": "[30]", "result": 0.2872}, {"measurement": "Array Heatmap signal, TRIM66 (PB)", "setting": "[31]", "result": 0.5924}]}
{"substance": "H3R8me2s + K9me3: H3 1-20", "values": [{"measurement": "Array Heatmap signal, AIRE (PP)", "setting": "[1]", "result": 0.6619}, {"measurement": "Array Heatmap signal, BAZ2B", "setting": "[2]", "result": 0.5401}, {"measurement": "Array Heatmap signal, BPTF (PB)", "setting": "[3]", "result": 0.4039}, {"measurement": "Array Heatmap signal, CHD4 (PPCC)", "setting": "[4]", "result": 0.6275}, {"measurement": "Array Heatmap signal, CHD5 (PCC)", "setting": "[5]", "result": 0.8709}, {"measurement": "Array Heatmap signal, CHD5 (PPCC)", "setting": "[6]", "result": 0.6469}, {"measurement": "Array Heatmap signal, DIDO1", "setting": "[7]", "result": 0.7617}, {"measurement": "Array Heatmap signal, DPF2 (PPC2W2)", "setting": "[8]", "result": 0.784}, {"measurement": "Array Heatmap signal, ING1", "setting": "[9]", "result": 0.6071}, {"measurement": "Array Heatmap signal, ING2", "setting": "[10]", "result": 0.6159}, {"measurement": "Array Heatmap signal, ING3", "setting": "[11]", "result": 0.5417}, {"measurement": "Array Heatmap signal, ING4", "setting": "[12]", "result": 0.5372}, {"measurement": "Array Heatmap signal, ING5", "setting": "[13]", "result": 0.4272}, {"measurement": "Array Heatmap signal, KDM4C (TTP)", "setting": "[14]", "result": 0.5668}, {"measurement": "Array Heatmap signal, KDM5A (1)", "setting": "[15]", "result": 0.5383}, {"measurement": "Array Heatmap signal, KDM5A (3)", "setting": "[16]", "result": 0.5266}, {"measurement": "Array Heatmap signal, KDM5B (1)", "setting": "[17]", "result": 0.6697}, {"measurement": "Array Heatmap signal, KDM5B (3)", "setting": "[18]", "result": 0.5509}, {"measurement": "Array Heatmap signal, KDM7A", "setting": "[19]", "result": 0.3933}, {"measurement": "Array Heatmap signal, MLL5", "setting": "[20]", "result": 0.5932}, {"measurement": "Array Heatmap signal, MORC3 (CW)", "setting": "[21]", "result": 0.4796}, {"measurement": "Array Heatmap signal, PHF13", "setting": "[22]", "result": 0.7048}, {"measurement": "Array Heatmap signal, PHF21A", "setting": "[23]", "result": 0.5424}, {"measurement": "Array Heatmap signal, PHF23", "setting": "[24]", "result": 0.594}, {"measurement": "Array Heatmap signal, PHF2", "setting": "[25]", "result": 0.5404}, {"measurement": "Array Heatmap signal, PHF8", "setting": "[26]", "result": 0.4276}, {"measurement": "Array Heatmap signal, PHRF1 (RP)", "setting": "[27]", "result": 0.5937}, {"measurement": "Array Heatmap signal, RAG2", "setting": "[28]", "result": 0.2769}, {"measurement": "Array Heatmap signal, SP140L", "setting": "[29]", "result": 0.3989}, {"measurement": "Array Heatmap signal, TAF3", "setting": "[30]", "result": 0.3134}, {"measurement": "Array Heatmap signal, TRIM66 (PB)", "setting": "[31]", "result": 0.7482}]}
